A word on the inhibition: it is the change of the read-out against control, counted positive when it falls. As usually defined, the IC50 is the concentration needed to halve the response being measured.

The first experiment deals with T1, human AChE (Homo sapiens, UniProt P22303).
T1 construct: purchased Sigma-Aldrich
T1 sequence (P22303 32-614): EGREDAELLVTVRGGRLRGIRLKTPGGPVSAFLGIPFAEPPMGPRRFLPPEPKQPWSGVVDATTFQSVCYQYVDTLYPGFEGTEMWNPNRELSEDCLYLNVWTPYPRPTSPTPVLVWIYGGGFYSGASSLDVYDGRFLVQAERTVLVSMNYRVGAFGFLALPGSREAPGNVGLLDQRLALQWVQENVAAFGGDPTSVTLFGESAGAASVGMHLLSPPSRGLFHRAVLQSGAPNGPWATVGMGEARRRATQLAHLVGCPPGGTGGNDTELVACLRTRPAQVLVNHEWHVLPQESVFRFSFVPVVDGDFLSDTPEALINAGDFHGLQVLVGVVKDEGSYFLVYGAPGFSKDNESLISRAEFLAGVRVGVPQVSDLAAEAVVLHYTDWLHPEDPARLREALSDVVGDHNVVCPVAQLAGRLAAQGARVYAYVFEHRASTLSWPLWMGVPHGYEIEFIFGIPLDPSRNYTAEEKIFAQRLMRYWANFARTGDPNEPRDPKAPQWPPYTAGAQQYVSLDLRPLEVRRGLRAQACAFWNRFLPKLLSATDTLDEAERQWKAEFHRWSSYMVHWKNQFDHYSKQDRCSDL
Put plainly: biochemical. Conditions: human recombinant AChE, 10 µM, mean of triplicate; na = no activity observed at 10 µM; read-out: % Inhibition at 10 µM. As for the experimental part: AChE and BChE inhibition studies were performed in 96 well plates by the method of Ellman, et al.. […] The mixture was preincubated for 20 min at 37 °C before addition of 50 μL (0.120 mM) of the substrate, acetylthiocholine (ATC) iodide or butyrylthiocholine (BTC) iodide (depending on the enzyme). […] Each assay was performed in triplicate. […] The percentage of inhibition was calculated using the expression: (E–S)/E × 100 where E is the activity of the enzyme without test compound and S is the activity of the enzyme with test compound.
(§1) IC50 values were obtained from concentration-inhibition experiments by nonlinear regression analysis using PRISM® v5.0 (GraphPad Inc., San Diego, CA, USA).
As for `O=C(/C=C/c1ccccc1Br)c1ccccc1O` [Compound 7, 2-Bromo-2′-hydroxychalcone], the inhibition at 10 µM is 38%.

Regarding `COc1cc(O)c(C(=O)/C=C/c2ccc(Br)cc2)c(OC)c1` [Compound 10, 4-Bromo-2′-hydroxy-4′,6′-dimethoxychalcone], the inhibition at 10 µM amounted to 30%.

As to `COc1cc(O)c(C(=O)/C=C/c2ccccc2Br)c(OC)c1` [Compound 13, 2-Bromo-2′-hydroxy-4′,6′-dimethoxychalcone], the inhibition at 10 µM came to 23%.

For `COc1cc(O)c(C(=O)/C=C/c2ccc(N(C)C)cc2)c(OC)c1` [Compound 11, 2′-Hydroxy-4′,6′-dimethoxy-4-(dimethylamino)chalcone], the inhibition at 10 µM turned out to be 5%.

As to `COc1cc(O)c(C(=O)/C=C/c2cc(Cl)cc(Cl)c2O)c(OC)c1` [Compound 14, 3,5-Dichloro-2,2′-dihydroxy-4′,6′-dimethoxychalcone], the inhibition at 10 µM came to 51%.

Turning to `COc1ccc(/C=C/C(=O)c2c(O)cc(OC)cc2OC)cc1` [Compound 12, 2′-Hydroxy-4,4′,6′-trimethoxychalcone], the inhibition at 10 µM came out at 7%.

For `COc1cc(O)c(C(=O)/C=C/c2ccc(C)cc2)c(OC)c1` [Compound 9, 2′-Hydroxy-4′,6′-dimethoxy-4-methylchalcone], the inhibition at 10 µM came out at 23%.

On to `CN(C)c1ccc(/C=C/C(=O)c2ccccc2O)cc1` [Compound 5, 2′-Hydroxy-4-(dimethylamino)chalcone], for which the inhibition at 10 µM is 28%.

The same experiment, now with this note: human recombinant AChE, mean ± SEM.
On to `O=C(/C=C/c1ccccc1Br)c1ccccc1O` [Compound 7, 2-Bromo-2′-hydroxychalcone], for which the IC50 was determined as 55 ± 12 µM.

As for `COc1cc(O)c(C(=O)/C=C/c2ccc(Br)cc2)c(OC)c1` [Compound 10, 4-Bromo-2′-hydroxy-4′,6′-dimethoxychalcone], the half-maximal inhibitory concentration (IC50) was 41 ± 13 µM.

For the compound `COc1cc(O)c(C(=O)/C=C/c2ccccc2Br)c(OC)c1` [Compound 13, 2-Bromo-2′-hydroxy-4′,6′-dimethoxychalcone], the 50% inhibitory concentration (IC50) is 85 ± 16 µM.

`COc1cc(O)c(C(=O)/C=C/c2cc(Cl)cc(Cl)c2O)c(OC)c1` [Compound 14, 3,5-Dichloro-2,2′-dihydroxy-4′,6′-dimethoxychalcone]: the IC50 turned out to be 73 ± 22 µM.

For `COc1cc(O)c(C(=O)/C=C/c2ccc(C)cc2)c(OC)c1` [Compound 9, 2′-Hydroxy-4′,6′-dimethoxy-4-methylchalcone], the IC50 was found to be 354 ± 33 µM.

In the case of `CN(C)c1ccc(/C=C/C(=O)c2ccccc2O)cc1` [Compound 5, 2′-Hydroxy-4-(dimethylamino)chalcone], the half-inhibitory concentration (IC50) was determined as 266 ± 48 µM.

Staying with this experiment, now noted: read-out: % Inhibition at 10 µM.
As to `COc1ccc(/C=C/C(=O)c2ccccc2O)cc1` [Compound 6, 2′-Hydroxy-4-methoxychalcone], the inhibition at 10 µM is 6%.

Turning to `O=C(/C=C/c1ccccc1)c1ccccc1O` [Compound 1, 2′-Hydroxychalcone], the inhibition at 10 µM stood at 11%.

The next experiment has as its target T1, human AChE. Nature of the experiment: Kinetic characterisation of AChE inhibition (Lineweaver-Burk, nonlinear regression mixed-model). Conditions: substrate acetylthiocholine 0.1-1.0 mM, read-out: Apparent Ki, human AChE. It is filed as biochemical. As for the experimental part:
[…]. The mode of inhibition was investigated using Lineweaver–Burk plots of 1/initial reaction rate (1/V) against 1/substrate concentration (1/[S]). Apparent inhibition constant (Ki and Ki′) values were determined using the nonlinear regression mixed-model inhibition method in PRISM® v5.0 (GraphPad Inc.).
Consider `O=C(/C=C/c1ccccc1Br)c1ccccc1O` [Compound 7, 2-Bromo-2′-hydroxychalcone], for which the Ki stood at 40 µM.

As to `COc1cc(O)c(C(=O)/C=C/c2ccc(Br)cc2)c(OC)c1` [Compound 10, 4-Bromo-2′-hydroxy-4′,6′-dimethoxychalcone], the Ki is 31 µM.

Consider `COc1cc(O)c(C(=O)/C=C/c2ccccc2Br)c(OC)c1` [Compound 13, 2-Bromo-2′-hydroxy-4′,6′-dimethoxychalcone], for which the Ki worked out at 113 µM.

As to `COc1cc(O)c(C(=O)/C=C/c2cc(Cl)cc(Cl)c2O)c(OC)c1` [Compound 14, 3,5-Dichloro-2,2′-dihydroxy-4′,6′-dimethoxychalcone], the Ki is 56 µM.

For the next experiment, the target named is T2, equine BChE (Equus caballus, UniProt P81908).
T2 construct: purchased Sigma-Aldrich
T2 sequence (P81908 whole entry): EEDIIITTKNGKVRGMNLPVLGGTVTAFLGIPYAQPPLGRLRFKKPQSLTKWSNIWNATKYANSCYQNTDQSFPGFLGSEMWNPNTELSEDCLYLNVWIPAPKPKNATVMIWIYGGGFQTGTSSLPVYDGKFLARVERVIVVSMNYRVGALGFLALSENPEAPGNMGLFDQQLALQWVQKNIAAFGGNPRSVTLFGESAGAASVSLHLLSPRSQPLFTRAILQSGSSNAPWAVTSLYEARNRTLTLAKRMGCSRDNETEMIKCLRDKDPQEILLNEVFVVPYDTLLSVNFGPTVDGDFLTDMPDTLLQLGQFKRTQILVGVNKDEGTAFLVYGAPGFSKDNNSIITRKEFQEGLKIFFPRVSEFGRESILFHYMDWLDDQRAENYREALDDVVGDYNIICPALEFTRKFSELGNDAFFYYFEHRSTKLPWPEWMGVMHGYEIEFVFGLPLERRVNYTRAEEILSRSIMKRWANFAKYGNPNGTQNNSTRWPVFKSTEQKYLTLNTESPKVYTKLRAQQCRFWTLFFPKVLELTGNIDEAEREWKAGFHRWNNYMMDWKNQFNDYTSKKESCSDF
Put plainly: Equine BChE inhibition, Ellman's method. It is filed as biochemical. Conditions: IC50 (BChE)/IC50 (AChE). As for the experimental part: The IC50 values of the four compounds that gave the greatest inhibition of AChE were also determined for equine BChE, which is readily available and is considered a good model for human BChE [23], as the equine form has 90% sequence identity compared to the human form. […].
AChE and BChE inhibition studies were performed in 96 well plates by the method of Ellman, et al.. 110 μL of sodium phosphate buffer (pH 8.0) was added to each well followed by 20 μL of test compound, 50 μL of 5,5′-dithiobis-(2-nitrobenzoic acid) (DTNB) (0.126 mM) and 20 μL of AChE or BChE (0.15 units/mL). The mixture was preincubated for 20 min at 37 °C before addition of 50 μL (0.120 mM) of the substrate, acetylthiocholine (ATC) iodide or butyrylthiocholine (BTC) iodide (depending on the enzyme). The hydrolysis of ATC or BTC was monitored using an Infinite® M200 PRO multimode reader (Tecan Group Ltd., Männedorf, Switzerland) by measuring the absorbance due to yellow 5-thio-2-nitrobenzoate anion at 412 nm every 30 s for 25 min. Each assay was performed in triplicate. […] The percentage of inhibition was calculated using the expression: (E–S)/E × 100 where E is the activity of the enzyme without test compound and S is the activity of the enzyme with test compound.
as §1
For the compound `O=C(/C=C/c1ccccc1Br)c1ccccc1O` [Compound 7, 2-Bromo-2′-hydroxychalcone], the “Selectivity for AChE” value was 2.0.

`COc1cc(O)c(C(=O)/C=C/c2ccc(Br)cc2)c(OC)c1` [Compound 10, 4-Bromo-2′-hydroxy-4′,6′-dimethoxychalcone]: the “Selectivity for AChE” value worked out at 1.4.

`COc1cc(O)c(C(=O)/C=C/c2cc(Cl)cc(Cl)c2O)c(OC)c1` [Compound 14, 3,5-Dichloro-2,2′-dihydroxy-4′,6′-dimethoxychalcone]: the “Selectivity for AChE” value was 1.1.

The experiment is the same for the next values; noted with them: equine BChE, mean ± SEM.
Take `O=C(/C=C/c1ccccc1Br)c1ccccc1O` [Compound 7, 2-Bromo-2′-hydroxychalcone]: the IC50 worked out at 108 ± 18 µM.

`COc1cc(O)c(C(=O)/C=C/c2ccc(Br)cc2)c(OC)c1` [Compound 10, 4-Bromo-2′-hydroxy-4′,6′-dimethoxychalcone] had a 50% inhibitory concentration (IC50) of 59 ± 12 µM.

The compound `COc1cc(O)c(C(=O)/C=C/c2ccccc2Br)c(OC)c1` [Compound 13, 2-Bromo-2′-hydroxy-4′,6′-dimethoxychalcone] yielded an IC50 of 71 ± 14 µM.

In the case of `COc1cc(O)c(C(=O)/C=C/c2cc(Cl)cc(Cl)c2O)c(OC)c1` [Compound 14, 3,5-Dichloro-2,2′-dihydroxy-4′,6′-dimethoxychalcone], the IC50 was 81 ± 18 µM.

Values taken from article PMC6273369, “Synthesis, Biological Evaluation and Molecular Modelling of 2′-Hydroxychalcones as Acetylcholinesterase Inhibitors” (Molecules, 2016).
